Key:
serum phosphorus [1] = experiment: Phase 3 trial in ESRD patients on dialysis (Example 1), 52-week Safety Assessment Period: serum phosphorus vs active control; format: in vivo, human; settings: for Mean Serum Phosphorus / Mean Serum Phosphorus, % Change from Baseline / Mean Serum Phosphorus, Change from Baseline: Table B; for Serum Phosphorus, Mean / Serum Phosphorus, Median: Safety Assessment Period; for Serum Phosphorus, Mean / Serum Phosphorus, Median / Serum Phosphorus, LS Mean / Serum Phosphorus, Change from Baseline, Mean / Serum Phosphorus, Change from Baseline, Median / Serum Phosphorus, Treatment Differences, LS Mean (KRX-0502) − LS Mean (control): Table 13; for Serum Phosphorus, Change from Baseline, Mean / Serum Phosphorus, Change from Baseline, Median: Day 0 baseline
Method: This trial was a three-period, multicenter, safety and efficacy clinical trial.
Period 2 (Safety Assessment Period). […] Patients were followed on their randomized assignment for safety assessments over 52 weeks.
For patients randomized to the active-control group, the starting dose of phosphate binder was the last dose that was administered immediately prior to the start of the Washout Period (if the patient remained on the same phosphate binder) or at the discretion of the PI, guided by the package insert, if the patient changed binders. However, for patients whose previous dose of phosphate binder exceeded 12 pills/day, if randomized to the active-control group, their starting dose of active-control drug was at the discretion of the PI, but will not exceed 12 pills/day. Calcium acetate 667 mg capsules and sevelamer carbonate 800 mg tablets were used and were supplied by Keryx Biopharmaceuticals, Inc. (Keryx) for the duration of the trial.
Serum phosphorus and calcium were checked at Visit 5 (Week 1), and every two weeks during the first 12 weeks after Visit 4 (Randomization Visit), and monthly for the rest of the Safety Assessment Period. During the Efficacy Assessment Period, serum phosphorus and calcium were drawn weekly. These values guided study drug administration. While on study drug, the use of other phosphate binders was not permitted. […] The titration of calcium acetate and sevelamer carbonate throughout the 52-week Safety Assessment Period were according to the current package inserts for these agents and/or at the discretion of the site PI.
Serum phosphorus and calcium were performed at Screening (Visit 0); weekly during the Washout Period after Visit 1 (Week −2); at Visit 4 (Randomization Visit); at Visits 5 (Week 1), 6 (Week 2), 7 (Week 4), 8 (Week 6), 9 (Week 8), 10 (Week 10), 11 (Week 12), 12 (Week 16), 13 (Week 20), 14 (Week 24), 15 (Week 28), 16 (Week 32), 17 (Week 36), 18 (Week 40), 19 (Week 44), 20 (Week 48), and 21 (Week 52) of the 52-week Safety Assessment Period; and at Visits 22 (Week 53), 23 (Week 54), 24 (Week 55) and 25 (Week 56) of the Efficacy Assessment Period.
The efficacy analyses were based on Full Analysis (FA) population that consisted of all patients who took at least one dose of study medication and provided baseline and at least one post-baseline efficacy assessment. The safety analyses were based on safety population that was consistent of all patients who took at least one dose of study medication.
• 1. Change in serum phosphorus concentration at Weeks 12, 24, 36, 48, and 52 as compared to baseline (Visit 4). This variable will be analyzed using LOCF methodology. ANCOVA will be employed. The model will include treatment (fixed effect), and baseline (covariate).

serum phosphorus [2] = experiment: Phase 2 trial in anemic Stage III to V CKD subjects not on dialysis (Example 2): serum phosphorus; format: in vivo, human
Method: This trial is a three-period clinical trial consisting of a screening period, a two-week washout period, and a 12-week treatment period.
If a subject has a serum phosphorus ≥6.0 mg/dL for at least two visits in a row during the 12-week treatment period, the subject is considered a treatment failure, stops study drug and exits the study.
The target level for serum phosphorus is 3.0 to 4.0 mg/dL. Subjects are titrated as follows: • 1. If serum phosphorus is at target (3.0 to 4.0 mg/dL), no adjustment in dose is required. • 2.
Change in serum phosphorus, ferritin and TSAT levels from baseline to end of treatment after 12 weeks are the primary endpoints.
The co-primary efficacy endpoints of this trial were the mean changes in serum phosphorus and TSAT from baseline to the end of the 12-week treatment period versus placebo in the ITT group.

C-Terminal FGF-23 = experiment: Phase 2 trial (Example 2): C-terminal FGF-23; format: in vivo, human; settings: n = 63
Text: The key secondary endpoints of the study were the mean changes in ferritin, hemoglobin and FGF-23 from baseline to the end of the 12-week treatment period versus placebo in the ITT group.

[3] = Dissolution testing, USP <711> vessels, Apparatus II; format: physicochemical; settings: relative to standard = 100

iron (+3), x (1, 2, 3-propanetricarboxylic acid, 2-hydroxy-), y (H2O) [KRX-0502]
Mean Serum Phosphorus (serum phosphorus [1]; Baseline, N = 277): 7.4 mg/dL | Phosphorus, Median (serum phosphorus [1]; Baseline, Table 12): 7.20 mg/dL | Phosphorus, Mean (serum phosphorus [1]; Baseline, Table 12, vs sevelamer carbonate as a single agent): 7.39 mg/dL | Serum Phosphorus, Mean (serum phosphorus [1]; Day 0 Baseline): 7.39 | Serum Phosphorus, Median (serum phosphorus [1]; Day 0 Baseline): 7.20 | Phosphorus, Week 12 Change from Baseline, Mean (serum phosphorus [1]; Table 12): -2.01 mg/dL | Phosphorus, Week 12 Change from Baseline, Median (serum phosphorus [1]; Table 12): -2.00 mg/dL | Phosphorus, LS Mean (serum phosphorus [1]; Week 12, ANCOVA, Day-0 baseline covariate, Table 12): 5.38 mg/dL | Serum Phosphorus, LS Mean (serum phosphorus [1]; Week 12, ANCOVA): 5.39 | Serum Phosphorus, Change from Baseline, Mean (serum phosphorus [1]; Week 12): −2.01 | Serum Phosphorus, Change from Baseline, Median (serum phosphorus [1]; Week 12): −2.00 | Mean Serum Phosphorus (serum phosphorus [1]; Week 12, LOCF): 5.4 mg/dL | Serum Phosphorus, Mean (serum phosphorus [1]; Week 12): 5.38 | Serum Phosphorus, Median (serum phosphorus [1]; Week 12): 5.10 | Phosphorus, Mean (serum phosphorus [1]; Week 12, Table 12): 5.38 mg/dL | Phosphorus, Median (serum phosphorus [1]; Week 12, Table 12): 5.10 mg/dL | Serum Phosphorus, Treatment Differences, LS Mean (KRX-0502) − LS Mean (control) (serum phosphorus [1]; Week 12): 0.07 | Mean Serum Phosphorus, % Change from Baseline (serum phosphorus [1]; Week 12): −27% | Mean Serum Phosphorus, Change from Baseline (serum phosphorus [1]; Week 12): -2.0 mg/dL | Phosphorus, Treatment Differences, LS Mean (KRX-0502) − LS Mean (Control) (serum phosphorus [1]; Week 12, control = sevelamer carbonate as a single agent): 0.16 mg/dL | Serum Phosphorus, LS Mean (serum phosphorus [1]; Week 24, ANCOVA): 5.26 | Serum Phosphorus, Change from Baseline, Mean (serum phosphorus [1]; Week 24): −2.14 | Serum Phosphorus, Change from Baseline, Median (serum phosphorus [1]; Week 24): −2.10 | Mean Serum Phosphorus (serum phosphorus [1]; Week 24, LOCF): 5.2 mg/dL | Serum Phosphorus, Mean (serum phosphorus [1]; Week 24): 5.24 | Serum Phosphorus, Median (serum phosphorus [1]; Week 24): 5.10 | Serum Phosphorus, Treatment Differences, LS Mean (KRX-0502) − LS Mean (control) (serum phosphorus [1]; Week 24): −0.21 | Mean Serum Phosphorus, % Change from Baseline (serum phosphorus [1]; Week 24): −30% | Mean Serum Phosphorus, Change from Baseline (serum phosphorus [1]; Week 24): -2.2 mg/dL | Serum Phosphorus, LS Mean (serum phosphorus [1]; Week 36, ANCOVA): 5.24 | Serum Phosphorus, Change from Baseline, Mean (serum phosphorus [1]; Week 36): −2.16 | Serum Phosphorus, Change from Baseline, Median (serum phosphorus [1]; Week 36): −2.10 | Mean Serum Phosphorus (serum phosphorus [1]; Week 36, LOCF): 5.2 mg/dL | Serum Phosphorus, Mean (serum phosphorus [1]; Week 36): 5.22 | Serum Phosphorus, Median (serum phosphorus [1]; Week 36): 5.10 | Serum Phosphorus, Treatment Differences, LS Mean (KRX-0502) − LS Mean (control) (serum phosphorus [1]; Week 36): −0.05 | Mean Serum Phosphorus, % Change from Baseline (serum phosphorus [1]; Week 36): −30% | Mean Serum Phosphorus, Change from Baseline (serum phosphorus [1]; Week 36): -2.2 mg/dL | Serum Phosphorus, LS Mean (serum phosphorus [1]; Week 48, ANCOVA): 5.33 | Serum Phosphorus, Change from Baseline, Mean (serum phosphorus [1]; Week 48): −2.07 | Serum Phosphorus, Change from Baseline, Median (serum phosphorus [1]; Week 48): −2.10 | Mean Serum Phosphorus (serum phosphorus [1]; Week 48, LOCF): 5.3 mg/dL | Serum Phosphorus, Mean (serum phosphorus [1]; Week 48): 5.32 | Serum Phosphorus, Median (serum phosphorus [1]; Week 48): 5.20 | Serum Phosphorus, Treatment Differences, LS Mean (KRX-0502) − LS Mean (control) (serum phosphorus [1]; Week 48): −0.12 | Mean Serum Phosphorus, % Change from Baseline (serum phosphorus [1]; Week 48): −28% | Mean Serum Phosphorus, Change from Baseline (serum phosphorus [1]; Week 48): -2.1 mg/dL | Serum Phosphorus, LS Mean (serum phosphorus [1]; Week 52, ANCOVA): 5.33 | Serum Phosphorus, Change from Baseline, Mean (serum phosphorus [1]; Week 52): −2.06 | Serum Phosphorus, Change from Baseline, Median (serum phosphorus [1]; Week 52): −2.20 | Mean Serum Phosphorus (serum phosphorus [1]; Week 52, LOCF): 5.3 mg/dL | Serum Phosphorus, Mean (serum phosphorus [1]; Week 52): 5.32 | Serum Phosphorus, Median (serum phosphorus [1]; Week 52): 5.20 | Serum Phosphorus, Treatment Differences, LS Mean (KRX-0502) − LS Mean (control) (serum phosphorus [1]; Week 52): −0.01 | Mean Serum Phosphorus, % Change from Baseline (serum phosphorus [1]; Week 52): −28% | Mean Serum Phosphorus, Change from Baseline (serum phosphorus [1]; Week 52): -2.1 mg/dL | Mean Serum Phosphorus, Baseline (serum phosphorus [2]; Baseline, ITT group, n = 72): 4.5 mg/dL | Mean Serum Phosphorus, End of Treatment (Week 12) (serum phosphorus [2]; Week 12, last observation carried forward, ITT group, n = 72): 3.9 mg/dL | co-primary (serum phosphorus, TSAT) and key secondary endpoints (ferritin, hemoglobin, FGF-23) (serum phosphorus [2]; mean changes baseline to end of 12-week treatment vs placebo, ITT, 141 subjects): met both co-primary and all key secondary endpoints with highly statistically significant results | ending serum phosphorus at Visit 11 (Week 12) (serum phosphorus [2]; sample size assumption): approximately 4.3 mg/dL | Mean C-Terminal FGF-23, Baseline (C-Terminal FGF-23; Baseline): 468 pg/mL | Mean C-Terminal FGF-23, End of Treatment (Week 12) (C-Terminal FGF-23; Week 12, last observation carried forward): 316 pg/mL | Dissolution testing, percentage dissolved ([3]; 5 minutes): ≥ 91% | Dissolution testing, percentage dissolved ([3]; 15 minutes): ≥ 96% | Dissolution testing, percentage dissolved ([3]; 30 minutes): ≥ 96% | Dissolution testing, percentage dissolved ([3]; 60 minutes): ≥ 95%
